Measurements published in patent US11279735B2, “Cyclic peptide antibiotics” (priority 2017, dated 2022).
In brackets after ≈: the same amount, converted by molar mass.

Test system: Escherichia coli (E. coli) strain CFT073 ATCC 700928
Assay type: cell-based
Conditions: ATCC 700928, 22 h
Description: In vitro antimicrobial activity of each compound was determined by measuring minimal inhibitor concentrations (MICs) using the broth micro-dilution technique as approved by the Clinical and Laboratory Standards Institute (CLSI) (Methods for Dilution Antimicrobial Susceptibility Tests for Bacteria that Grow Aerobically; Approved Standard—Eighth Edition. CLSI document M07-A8. Wayne, Pa.: Clinical and Laboratroy Standards; 2009). Antibacterial activity was measure against Escherichia coli (E. coli) strain CFT073 ATCC 700928, which is a clinically relevant Gram-negative strain. Cells were inoculated onto plates of Mueller Hinton Agar and grown at 37° C. for 16-18 hours. Inocula suspensions were prepared by scraping cells into 1 mL of testing media (Mueller Hinton II cation adjusted Broth supplemented with 0.002% v/v Tween-80) and diluting to a final OD600 nm of 0.01.
Test compounds were prepared in DMSO at a concentration of 100 uM The compounds were tested under several different dilution formats and the data are reported in Tables 6, 7 and 8. In protocol 1, the compound stocks were diluted into testing media at a concentration of 64 μg/ml and serial 2-fold dilutions were made in the same media, in 96-well U bottom microtiter dishes, for a total of 10 compound concentrations. In protocol 2, the compound stocks were diluted into testing media at a concentration of 4 μg/mL and serial 2-fold dilutions were made in the same media, in 96-well U bottom microtiter dishes, for a total of 10 compound concentrations. In protocol 3, compound stocks were diluted into testing media at a concentration of 0.5 μg/mL, with serial 2-fold dilutions conducted as described above. In protocol 4, compound stocks were diluted into testing media at a concentration of 0.13 μg/mL, with serial 2-fold dilutions conducted as described above. Inocula suspensions were added to the 2-fold serial dilutions of test compounds to a final density of OD OD600 nm of 0.0005 and incubated at 35° C. for 22 hours.

Compound	MIC [µM]
CCCCCCCCCC[C@H]1OC(=O)CNC(=O)[C@H](CO)NC(=O)[C@H](CO)NC(=O)[C@H]([C@@H](C)CC)NC(=O)[C@H](CCCC)N(C)C(=O)[C@@H]1C [Example 31, (6S,9S,12S,15S,18R,19R)-15-butyl-19-decyl-6,9-bis(hydroxymethyl)-16,18-dimethyl-12-[(1S)-1-methylpropyl]-1-oxa-4,7,10,13,16-pentazacyclononadecane-2,5,8,11,14,17-hexone]	13 (≈ 9.07 µg/mL)
CCCCCCCCCC[C@H]1OC(=O)CNC(=O)[C@H]([C@H](C)O)NC(=O)[C@H](CO)NC(=O)[C@H]([C@@H](C)CC)NC(=O)[C@H](CCC)N(C)C(=O)[C@@H]1C [Example 32, (6S,9S,12S,15S,18R,19R)-19-decyl-6-[(1S)-1-hydroxyethyl]-9-(hydroxymethyl)-16,18-dimethyl-12-[(1S)-1-methylpropyl]-15-propyl-1-oxa-4,7,10,13,16-pentazacyclononadecane-2,5,8,11,14,17-hexone]	9.4 (≈ 6.56 µg/mL)
CCCCCC[C@H]1OC(=O)CNC(=O)[C@H]([C@H](C)O)NC(=O)[C@H](CN)NC(=O)[C@H]([C@H](C)CC)NC(=O)[C@H](CC(C)C)N(C)C(=O)[C@@H]1C [Example 34, (6S,9S,12S,15S,18R,19R)-9-(aminomethyl)-19-hexyl-6-[(1S)-1-hydroxyethyl]-15-isobutyl-16,18-dimethyl-12-[(1R)-1-methylpropyl]-1-oxa-4,7,10,13,16-pentazacyclononadecane-2,5,8,11,14,17-hexone]	9.4 (≈ 6.16 µg/mL)
CCCCCCCCCC[C@H]1OC(=O)CNC(=O)[C@H](CO)NC(=O)[C@H](CO)NC(=O)[C@H]([C@@H](C)CC)NC(=O)[C@H](CCC)N(C)C(=O)[C@@H]1C [Example 36, (6S,9S,12S,15S,18R,19R)-19-decyl-6,9-bis(hydroxymethyl)-16,18-dimethyl-12-[(1S)-1-methylpropyl]-15-propyl-1-oxa-4,7,10,13,16-pentazacyclononadecane-2,5,8,11,14,17-hexone]	25 (≈ 17.1 µg/mL)
CCCCCCCCCC[C@H]1OC(=O)CNC(=O)[C@H]([C@H](C)O)NC(=O)[C@H](CO)NC(=O)[C@H](CCC)NC(=O)[C@H](CC(C)C)N(C)C(=O)[C@@H]1C [Example 40, (6S,9S,12S,15S,18R,19R)-19-decyl-6-((S)-1-hydroxyethyl)-9-(hydroxymethyl)-15-isobutyl-16,18-dimethyl-12-propyl-1-oxa-4,7,10,13,16-pentaazacyclononadecane-2,5,8,11,14,17-hexaone]	50 (≈ 34.9 µg/mL)
CCCCCCCCCC[C@H]1OC(=O)CNC(=O)[C@H](CO)NC(=O)[C@H](CO)NC(=O)[C@H](CC2CCC2)NC(=O)[C@H](CC(C)C)N(C)C(=O)[C@@H]1C [Example 41, (6S,9S,12S,15S,18R,19R)-12-(cyclobutylmethyl)-19-decyl-6,9-bis(hydroxymethyl)-15-isobutyl-16,18-dimethyl-1-oxa-4,7,10,13,16-pentazacyclononadecane-2,5,8,11,14,17-hexone]	25 (≈ 17.7 µg/mL)
CCCC(CCC)C[C@H]1OC(=O)CNC(=O)[C@H]([C@H](C)O)NC(=O)[C@H](CO)NC(=O)[C@H]([C@H](C)CC)NC(=O)[C@H](CC(C)C)N(C)C(=O)[C@@H]1C [Example 42, (6S,9S,12S,15S,18R,19R)-6-[(1S)-1-hydroxyethyl]-9-(hydroxymethyl)-15-isobutyl-16,18-dimethyl-12-[(1R)-1-methylpropyl]-19-(2-propylpentyl)-1-oxa-4,7,10,13,16-pentazacyclononadecane-2,5,8,11,14,17-hexone]	50 (≈ 34.2 µg/mL)
CCCCCCCCCC[C@H]1OC(=O)CNC(=O)[C@H](CO)NC(=O)[C@H](CO)NC(=O)[C@H](C(CC)CC)NC(=O)[C@H](CC(C)C)N(C)C(=O)[C@@H]1C [Example 43, (6S,9S,12S,15S,18R,19R)-19-decyl-12-(1-ethylpropyl)-6,9-bis(hydroxymethyl)-15-isobutyl-16,18-dimethyl-1-oxa-4,7,10,13,16-pentazacyclononadecane-2,5,8,11,14,17-hexone]	13 (≈ 9.26 µg/mL)
CC[C@H](C)[C@@H]1NC(=O)[C@H](CC(C)C)N(C)C(=O)[C@H](C)[C@@H](CCCCC(C)(C)C)OC(=O)CNC(=O)[C@H]([C@H](C)O)NC(=O)[C@H](CO)NC1=O [Example 44, (6S,9S,12S,15S,18R,19R)-19-(5,5-dimethylhexyl)-6-[(1S)-1-hydroxyethyl]-9-(hydroxymethyl)-15-isobutyl-16,18-dimethyl-12-[(1S)-1-methylpropyl]-1-oxa-4,7,10,13,16-pentazacyclononadecane-2,5,8,11,14,17-hexone]	25 (≈ 17.1 µg/mL)
CCCCCCCCCC[C@H]1OC(=O)CNC(=O)[C@H]([C@H](C)O)NC(=O)[C@H](CN)NC(=O)[C@H](C2CCCC2)NC(=O)[C@H](CC(C)C)N(C)C(=O)[C@@H]1C [Example 45, (6S,9S,12S,15S,18R,19R)-9-(aminomethyl)-12-cyclopentyl-19-decyl-6-[(1S)-1-hydroxyethyl]-15-isobutyl-16,18-dimethyl-1-oxa-4,7,10,13,16-pentazacyclononadecane-2,5,8,11,14,17-hexone]	25 (≈ 18.1 µg/mL)
CCCCCCCCCC[C@H]1OC(=O)CNC(=O)[C@H]([C@H](C)O)NC(=O)[C@H](CN)NC(=O)[C@H](CCc2ccccc2)NC(=O)[C@H](CC(C)C)N(C)C(=O)[C@@H]1C [Example 46, (6S,9S,12S,15S,18R,19R)-9-(aminomethyl)-19-decyl-6-[(1S)-1-hydroxyethyl]-15-isobutyl-16,18-dimethyl-12-(2-phenylethyl)-1-oxa-4,7,10,13,16-pentazacyclononadecane-2,5,8,11,14,17-hexone]	25 (≈ 19 µg/mL)

More lines, now with the values ahead:

MIC [µM]	Compound
13 (≈ 9.72 µg/mL)	CCCCCCCCCC[C@H]1OC(=O)CNC(=O)[C@H](Cc2c[nH]cn2)NC(=O)[C@H](CO)NC(=O)[C@H]([C@@H](C)CC)NC(=O)[C@H](CC(C)C)N(C)C(=O)[C@@H]1C [Example 29, (6S,9S,12S,15S,18R,19R)-19-decyl-9-(hydroxymethyl)-6-(1H-imidazol-4-ylmethyl)-15-isobutyl-16,18-dimethyl-12-[(1S)-1-methylpropyl]-1-oxa-4,7,10,13,16-pentazacyclononadecane-2,5,8,11,14,17-hexone]
13 (≈ 8.86 µg/mL)	CCCCCCCCCC[C@H]1OC(=O)CNC(=O)[C@H](C)NC(=O)[C@H](CO)NC(=O)[C@H]([C@@H](C)CC)NC(=O)[C@H](CC(C)C)N(C)C(=O)[C@@H]1C [Example 30, (6S,9S,12S,15S,18R,19R)-19-decyl-9-(hydroxymethyl)-15-isobutyl-6,16,18-trimethyl-12-[(1S)-1-methylpropyl]-1-oxa-4,7,10,13,16-pentazacyclononadecane-2,5,8,11,14,17-hexone]
13 (≈ 9.44 µg/mL)	CCCCCCCCCC[C@H]1OC(=O)[C@H](C)NC(=O)[C@H]([C@H](C)O)NC(=O)[C@H](CO)NC(=O)[C@H]([C@@H](C)CC)NC(=O)[C@H](CC(C)C)N(C)C(=O)[C@@H]1C [Example 33, (3S,6S,9S,12S,15S,18R,19R)-19-decyl-6-[(1S)-1-hydroxyethyl]-9-(hydroxymethyl)-15-isobutyl-3,16,18-trimethyl-12-[(1S)-1-methylpropyl]-1-oxa-4,7,10,13,16-pentazacyclononadecane-2,5,8,11,14,17-hexone]
6.3 (≈ 4.66 µg/mL)	CCCCCCCCCCCC[C@H]1OC(=O)CNC(=O)[C@H]([C@H](C)O)NC(=O)[C@H](CO)NC(=O)[C@H]([C@@H](C)CC)NC(=O)[C@H](CC(C)C)N(C)C(=O)[C@@H]1C [Example 35, (6S,9S,12S,15S,18R,19R)-19-dodecyl-6-[(1S)-1-hydroxyethyl]-9-(hydroxymethyl)-15-isobutyl-16,18-dimethyl-12-[(1S)-1-methylpropyl]-1-oxa-4,7,10,13,16-pentazacyclononadecane-2,5,8,11,14,17-hexone]
25 (≈ 18.5 µg/mL)	CCCCCCCCCC[C@H]1OC(=O)CNC(=O)[C@H](CNC(N)=O)NC(=O)[C@H](CO)NC(=O)[C@H]([C@@H](C)CC)NC(=O)[C@H](CC(C)C)N(C)C(=O)[C@@H]1C [Example 37, [(6S,9S,12S,15S,18R,19R)-19-decyl-9-(hydroxymethyl)-15-isobutyl-16,18-dimethyl-12-[(1S)-1-methylpropyl]-2,5,8,11,14,17-hexaoxo-1-oxa-4,7,10,13,16-pentazacyclononadec-6-yl]methylurea]
50 (≈ 37.6 µg/mL)	CCCCCCCCCC[C@H]1OC(=O)CNC(=O)[C@H](C2CCNCC2)NC(=O)[C@H](CO)NC(=O)[C@H]([C@@H](C)CC)NC(=O)[C@H](CC(C)C)N(C)C(=O)[C@@H]1C [Example 38, (6S,9S,12S,15S,18R,19R)-19-decyl-9-(hydroxymethyl)-15-isobutyl-16,18-dimethyl-12-[(1S)-1-methylpropyl]-6-(4-piperidyl)-1-oxa-4,7,10,13,16-pentazacyclononadecane-2,5,8,11,14,17-hexone]
25 (≈ 17.1 µg/mL)	CCCCCCCCCC[C@H]1OC(=O)CNC(=O)[C@H](CO)NC(=O)[C@H](CO)NC(=O)[C@H](C(C)C)NC(=O)[C@H](CC(C)C)N(C)C(=O)[C@@H]1C [Example 39, (6S,9S,12S,15S,18R,19R)-19-decyl-6,9-bis(hydroxymethyl)-15-isobutyl-12-isopropyl-16,18-dimethyl-1-oxa-4,7,10,13,16-pentazacyclononadecane-2,5,8,11,14,17-hexone]
